The results in this text go back to patent publication US5624924A, “Quinobenzothiazine antineoplastic agents” (priority 1994, dated 1997).

SMILES strings stand for the structures. Where a name gives a salt, the structure may show the parent alone. Read-outs that look alike come from different tables or passages of the source.

One series is described as follows: Aqueous solubility. The settings on record: water. Format: physicochemical. The source says: The effect of peptidyl substitution on the solubility of the compounds of the invention was examined by dissolving samples thereof in water.
The subject of series [1] is P388 mouse leukemia cell line. As to the kind of experiment: In vitro cytotoxicity (MTT), P388. The settings on record: P388, 72 h, read-out: In Vitro Cytotoxicity (IC50). Format: cell-based. In outline:
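Cells seeded at 2,500 per well with two-fold compound dilutions, in triplicate, and incubated 3 days at 36 °C in 5% CO2. The P388-ADR(0.1) inoculum is grown in 0.1 mcg.ml ADRIAMYCIN, the (0.0) inoculum drug-free. MTT reduction read at 570 nm after DMSO solubilisation; IC50 calculated.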

In another series the test system is B16F10 mouse melanoma. Put plainly: In vitro cytotoxicity (MTT), B16F10. Format: cell-based. The settings on record: B16-F10, 72 h, read-out: In Vitro Cytotoxicity (IC50).
The subject of series [2] is HT-29 human colon cancer cell line. As to the kind of experiment: In vitro cytotoxicity (MTT), HT-29. Format: cell-based. The settings on record: HT-29, 72 h. In outline:
(§1)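 Cells at 2,500 per well were exposed to two-fold serial compound dilutions in triplicate for three days at 36° C under 5% CO2, with doxorubicin as reference. MTT was added for 2–4 h, and the formazan was dissolved in DMSO and read at 570 nm. IC50 is the concentration killing 50% of cells relative to drug-free controls.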

For the next series, the system named is P388 ascitic leukemia. As to the kind of experiment: In vivo activity against systemic tumor P388. Further details: species or system mouse. The settings on record: five days. As to the method:
Prior to testing, P388 was propagated intraperitoneally in female DBA2 mice. The ascitic tumors were intraperitoneally injected in female B6 D2 F1 mice at a concentration of 10^6 cells per mouse. The mice were treated with antiumor agents administered once daily for five consecutive days, with the antineoplastic 5-fluorouracil used as a positive control.
All drugs were administered intraperitoneally in 5% aqueous dextrose or other suitable diluent. Drug efficacy was evaluated based on prolongation of mean survival time (MST). Improvement of MST was calculated as % MST(T/C), the percent ratio of mean survival times of test (T) versus control (C) mice. Compounds having % MST(T/C) values greater than 125 are considered to have significant activity. The antitumor activity of the two compounds in the P388 systemic leukemia model is illustrated in Table 3 below.

Series [3] deals with C-26 colon adenocarcinoma. As to the kind of experiment: In vivo activity against C-26 colon adenocarcinoma implanted IP (Example 42). Further details: species or system mouse. The settings on record: dose 40, IP days 1, 5, 9. As to the method:
In the case of C-26 colon adenocarcinema, the tumor was implanted IP into mice on day 0. The compound to be tested. (the compound of Example 8) was administered IP at days 1, 5, and 9 and the results recorded on day 60. % MST(T/C) values were calculated as before and are shown below for two separate trials.

Series [4] concerns HCT-8 human colon cancer cell line. As to the kind of experiment: In vitro cytotoxicity (MTT), HCT-8. Format: cell-based. The settings on record: HCT-8, 72 h, read-out: In Vitro Cytotoxicity (IC50). As for the experimental part:
(§2) Metabolic activity was measured by the cells' ability to reduce the tetrazolium dye, 3-(4,5-dimethylthiazol-2-yl)-2,5-diphenyltetrazolium bromide (MTT), to a quantifiable colored formasan derivative. Surviving cells reduce the MTT dye. The inhibitory concentrations of killing 50% of the cells (IC50 s) were calculated. Testing was in accord with the following protocol:
(§3) Test compounds and a reference antineoplastic agent, ADRIAMYCIN (doxorubicin hydrochloride), were dissolved in dimethyl sulfoxide (DMSO) and diluted, first with Earle's Balanced Salt Solution, followed by culture medium, to twice the highest concentration of the compound to be tested. From this concentrated stock, two-fold serial dilutions were prepared in 96-well microtiter trays, each well containing twice the desired final concentration of the compound. Each concentration was tested in triplicate and compared to triplicate drug-free controls.
(§4) The cells were grown in the same medium used for diluting the compounds. Adherent cells were harvested by trypsinization according to the following procedure:
After harvesting by trypsinization, viable cell counts were determined and cell density was adjusted to 25,000 cells/mL. Inoculum (0.1 mL) was then added to each well for a final concentration of 2,500 cells per well. Addition of the inoculum was used to dilute the test compounds to the desired concentration. […]

In series [5] the test system is A549 human lung cancer cell line. Put plainly: In vitro cytotoxicity (MTT), A549. Format: cell-based. The settings on record: A549, 72 h. The gist of the method: as §1
In series [6] the test system is P388-ADR(0.0), ADRIAMYCIN-resistant variant of P388. Put plainly: In vitro cytotoxicity (MTT), P388-ADR(0.0). It counts as cell-based. The settings on record: Mus musculus, 72 h, inoculum grown in drug-free medium, Table 2. As for the experimental part: as §2, §3, §4
(§5) After harvesting by trypsinization, viable cell counts were determined and cell density was adjusted to 25,000 cells/mL. Inoculum (0.1 mL) was then added to each well for a final concentration of 2,500 cells per well. Addition of the inoculum was used to dilute the test compounds to the desired concentration.
(§6) Microtiter trays were incubated for three days at 36° C. in a humidified atmosphere containing 5% carbon dioxide.
(§7) After three days, 20 microliters of 5 mg/mL MTT in phosphate-buffered solution were added to each well of the microtiter trays. The microtiter trays were then returned to the incubator for two to four hours to allow the surviving cells to reduce the dye. After this incubation, both the medium and the unreduced dye were removed by aspiration. DMSO was added to each well to dissolve the water-insoluble, colored end product of the dye reduction for spectrophotometric measurement at 570 nm.
Compounds from Examples 4, 6, 8, 9 and 10 were additionally tested against human and murine tumor cell lines A549, HT-29, P388-D1, P388, P388-ADR(0.0), P388-ADR(0.1) and B16F109. (P388 is a mouse leukemia cell line similar to P388-D1, but animal-passaged; P388-ADR (0.0) is an ADRIAMYCIN-resistant variant of P388, the inoculum of which is grown in drug-free medium; P388-ADR (0.1) is an ADRIAMYCIN-resistant variant of P388, the inoculum of which is grown in medium with 0.1 mcg.ml ADRIAMYCIN; and B16F10 is a mouse melanoma.) The results are presented in Table 2; as shown in the table, the compounds of the present invention are effective cytotoxic agents even against the ADRIAMYCIN-resistant cell line P388-ADR.

The subject of a further series is M5076 ovarian sarcoma. Put plainly: In vivo activity against M5076 ovarian sarcoma implanted subcutaneously. Also noted: species or system mouse. The settings on record: IP every 2 days, days 1-11. As for the experimental part:
For M5076 ovarian sarcoma, the solid tumor was implanted subcutaneously into mice on day 0. The compound to be tested (the compound of Example 8) was administered IP every 2 days up to day 11, starting on day 1. Both % MST(T/C) and % MTM(T/C) values were calculated, and are presented below.

Series [7] concerns P388-D1 mouse leukemia cell line. Put plainly: In vitro cytotoxicity (MTT), P388-D1. Format: cell-based. The settings on record: for IC50: Mus musculus, P388D1, 72 h, read-out: In Vitro Cytotoxicity (IC50), P388-D1. As to the method:
as §2, §3, §4, §5, §6, §7
The results obtained which clearly show the cytotoxicity of the compounds of Examples 5, 6, 7 and 8 against […] tumor cell lines A549, HCT-8, HT-29 and P388-D1, are illustrated in Table 1. (A549 is a human lung cancer cell line; HCT-8 is a human colon cancer cell line; HT-29 is a human colon cancer cell line; and P388-D1 is a mouse leukemia cell line.)

In series [8] the test system is P388-ADR(0.1), ADRIAMYCIN-resistant variant of P388. As to the kind of experiment: In vitro cytotoxicity (MTT), P388-ADR(0.1). The settings on record: Mus musculus, 72 h, inoculum grown with 0.1 mcg.ml ADRIAMYCIN, Table 2, ADR value marked *: single test. Format: cell-based. As for the experimental part:
as §2, §3, §4, §5, §6
After three days, 20 microliters of 5 mg/mL MTT in phosphate-buffered solution were added to each well of the microtiter trays. The microtiter trays were then returned to the incubator for two to four hours to allow the surviving cells to reduce the dye. After this incubation, both the medium and the unreduced dye were removed by aspiration. DMSO was added to each well to dissolve the water-insoluble, colored end product of the dye reduction for spectrophotometric measurement at 570 nm. […]

The mark [9] stands for this setting: read-out: In Vitro Cytotoxicity (IC50), HT-29, Table 2, ADR: average of two tests.
The mark [10] stands for this setting: read-out: In Vitro Cytotoxicity (IC50), A549, Table 1, three day MTT assay.
Setting [11] is: read-out: In Vitro Cytotoxicity (IC50), A549, Table 2, ADR: average of two tests.
[12] abbreviates: Table 2, ADR value marked *: single test.

Broadly, the solubility is the dissolved amount per volume that the medium holds. Low values mean little dissolved substance, high ones much dissolved substance. For orientation: IC50 means the midpoint of a concentration-inhibition curve. In turn, `CCC[C@H](N)C(=O)NC1CCN(c2c(F)cc3c(=O)c(C(=O)O)cn4c3c2Oc2ccccc2-4)C1` (stereo partly shown) [Example 8, 1-(3-norvalylaminopyrrolidin-1-yl)-2-fluoro-4-oxo-4H-quino[2,3,4-i,j][1,4]benzoxazine-5-carboxylic acid hydrochloride] gave a solubility in “Aqueous solubility” of 10.7 mg/mL. Moreover, the IC50 in [1] was 0.0395 µg/mL; in the series with B16F10 mouse melanoma, 0.0271 µg/mL; in [2] (setting [9]) it was 0.195 µg/mL; in series [4], 0.075 µg/mL; in series [5] (setting [10]), 0.512 µg/mL; in series [5] (setting [11]) it was 0.591 µg/mL. The IC50 in [6] was 0.394 µg/mL; in series [7] (Table 1, three day MTT assay) it was < 0.05 µg/mL. For the same compound, the “% MST(T/C)” value in the series with P388 ascitic leukemia (3.9 mg/kg IP once daily) turned out to be 177.3%; in the series with P388 ascitic leukemia (7.81 mg/kg IP once daily), 200.0%; in the series with P388 ascitic leukemia (15.62 mg/kg IP once daily), 209.1%; in the series with P388 ascitic leukemia (31.25 mg/kg IP once daily), 63.6%. Further, the entries for the “C-26 % MST(T/C)” value in series [3] (first trial) and in series [3] (second trial) were 52.3% and 43.9%, respectively. In addition, the “M5706 % MST(T/C)” value in the series with M5076 ovarian sarcoma (dose 5) came to 148.4%; in the series with M5076 ovarian sarcoma (dose 10) it was 154.4%; in the series with M5076 ovarian sarcoma (dose 20), 138.1%; with M5076 ovarian sarcoma (dose 40), 39.1%. The M5706 % MTM(T/C) with M5076 ovarian sarcoma (dose 5) came to 62%; in the series with M5076 ovarian sarcoma (dose 10), 49%; with M5076 ovarian sarcoma (dose 20), 22%.
For `COc1cccc2c1C(=O)c1c(O)c3c(c(O)c1C2=O)C[C@@](O)(C(=O)CO)C[C@@H]3O[C@H]1C[C@H](N)[C@H](O)[C@H](C)O1` [ADR, doxorubicin hydrochloride, reference compound], the IC50 in series [1] is 0.0022 µg/mL; in the series on B16F10 mouse melanoma, 0.005 µg/mL; in series [2] (setting [9]) it was 0.285 µg/mL; in series [4], 0.038 µg/mL; in [5] (setting [11]) it was 0.313 µg/mL; in [6] it was 2.59 µg/mL. Besides, the IC50 in [8] turned out to be 1.9 µg/mL; in [7] (Table 1, three day MTT assay), 0.016 µg/mL; in series [7] (setting [12]), 0.025 µg/mL. In [7] (P388-D1, Table 1, three day MTT assay, 4320 min, hydrochloride), the “In Vitro Cytotoxicity (IC50)” value came to 0.010.
Take `Cc1ccc2c(c1)Oc1c(N3CCC(N)C3)c(F)cc3c(=O)c(C(=O)O)cn-2c13` (stereo not shown) [Example 6, 1-(3-aminopyrrolidin-1-yl)-2-fluoro-9-methyl-4-oxo-4H-quino[2,3,4-i,j][1,4]benzoxazine-5-carboxylic acid hydrochloride]: the IC50 in [1] amounted to 0.071 µg/mL; with B16F10 mouse melanoma it was 0.056 µg/mL; in series [2] (read-out: In Vitro Cytotoxicity (IC50), HT-29, Table 1, three day MTT assay), 0.049 µg/mL; in series [2] (setting [9]) it was 0.076 µg/mL; in series [5] (setting [10]), 0.13 µg/mL; in [5] (setting [11]), 0.23 µg/mL. For the same compound, the IC50 in series [6] was 0.2 µg/mL; in series [8], 0.2 µg/mL; in series [7] (Table 1, three day MTT assay), 0.067 µg/mL; in series [7] (setting [12]), 0.08 µg/mL.
Consider `Cc1ccc2c(c1)Oc1c(N3CCC(NC(=O)[C@H](C)N)C3)c(F)cc3c(=O)c(C(=O)O)cn-2c13` (stereo partly shown) [Example 9, 1-(3-alanylaminopyrrolidin-1-yl)-2-fluoro-9-methyl-4-oxo-4H-quino[2,3,4-i,j][1,4]benzoxazine-5-carboxylic acid hydrochloride], for which the half-inhibitory concentration (IC50) in series [1] amounted to 0.062 µg/mL; in the series on B16F10 mouse melanoma, 0.048 µg/mL; in series [2] (setting [9]), 0.075 µg/mL; in series [5] (setting [11]), 0.23 µg/mL; in [6], 0.19 µg/mL; in [8] it was 0.18 µg/mL. The IC50 in series [7] (setting [12]) worked out at 0.081 µg/mL.
